Source: patent publication US9352010B2, “Treatment of HIV-1 infection and AIDS” (The J. David Gladstone Institutes, priority 2011, dated 2016)

Experiments:
[1] = system: human monocytes; conditions: LPS and ATP; cited from earlier work
[2] = system: CFSE-labeled CD4 T-cells; assay type: cell-based, human; conditions: for indirect killing (loss) of resting CFSE-labeled CD4 T-cells: NL4-3-infected effector cells
Description: (A) Experimental strategy to assess indirect cell killing in HIV-1-infected human lymphoid cultures. Fresh human tonsil tissue from a single donor is processed into HLAC, and then separated into two fractions. One fraction is challenged with HIV-1 and cultured for 6 days, allowing viral spread. On day 5, the uninfected fraction is treated with AZT (5 μM) and labeled with CFSE (1 μM). On day 6, the infected and CFSE-labeled (i.e., uninfected) cultures are mixed and co-cultured in the presence of AZT. […] After 6 days of co-culturing, the number of viable CFSE-positive cells is determined by flow cytometry. (B) Flow cytometry analysis of the mixed HLACs. Indirect killing is determined by gating on live CFSE-positive cells in the mixed cultures. Effector cells are either infected or uninfected cells. […] CFSE-labeled cells mixed with uninfected or infected cells were cultured in the presence of 5 μM AZT alone or together with 250 nM AMD3100. Data represent live CFSE-positive cells 6 days after co-culture with infected or uninfected effector cells. […] The absolute numbers of viable CFSE-positive CD4 and CD8 T-cells and B cells were determined. Percentages are normalized to the number of viable CFSE-positive cells co-cultured with uninfected cells in the presence of AZT, as depicted by (*). Error bars represent standard deviations of three samples from the same donor. […] See also FIG. 3.
(§1) Human tonsil or splenic tissues from routine tonsillectomies were obtained from the National Disease Research Interchange and the Cooperative Human Tissue Network and processed as previously described (Jekle et al., 2003, J Virol 77:5846-5854). In brief, tonsils or spleen were minced, passed through a 40-μm cell strainer, and cultured in 96-well U-bottomed polystyrene plates (2×10^6 cells/well) in medium (200 μl/well) consisting of RPMI 1640 supplemented with 15% heat-inactivated fetal bovine serum, 100 μg/ml gentamicin, 200 μg/ml ampicillin, 1 mM sodium pyruvate, 1% nonessential amino acids (Mediatech), 2 mM L-glutamine, and 1% fungizone (Invitrogen). All HIV-1 infections were carried out with 20-50 ng of HIV-1 p24^gag. Cells were incubated with the virus for 12-16 h, washed extensively, and supplemented with fresh medium. After day 5, infections were monitored by measuring p24gag levels in the culture medium using a FLAQ assay (Hayden et al., 2003, AIDS 17:629-631). Infected and uninfected cultures were manipulated as described for individual experiments. In “indirect killing” assays, unless otherwise stated, drugs were used at the following concentrations: 5 μM AZT; 250 nM AMD3100; 10 μg/ml T20; 100 nM Efavirenz; 1 μM Nevirapine; 30 μM Raltegravir; 60 μM 118-D-24; 5 μM Amprenavir; 5 μM Saquinavir; 5 μM Indinavir. CFSE-labeled cells were activated with PHA (5 μg/ml) and IL-2 (20 ng/ml) 2 days before mixing with effector cells.
Uninfected cells (5×10^6/ml) were labeled with 1 μM CFSE (Molecular Probes C1157), treated with 5 μM AZT for 24 h, and co-cultured with effector cells. CFSE readily diffuses into cells, where intracellular esterases cleave the acetate groups, converting it to a fluorescent, membrane-impermeable dye.

[3] = system: SupT1 CD4 T leukemic cells; assay: Syncytia formation in NL4-3-infected SupT1 cells; assay type: cell-based; conditions: 5 μM protease inhibitor, 2.5 days
Description: (A) The spinoculation procedure. (B) Flow cytometry of viable CD4 versus CD8-T-cells in HLAC three days after spinoculation in the presence of the indicated drugs. Data represent live-gated cells, based on the forward-scatter versus side-scatter profile of the complete culture. Of note, apoptotic cells were included in the analysis of caspases activity and cytokine expression (FIG. 10E, F). Drugs concentrations: AZT 5 μM; Efavirenz 100 nM; AMD3100 250 nM; T20 10 μg/ml. The data are representative results of six independent experiments with six different donors. […] (C) Highly permissive SupT1 CD4 T leukemic cells were infected with NL4-3 and cultivated for 3 days to allow substantial infection but not syncytia formation. […] After 2.5 days of additional culture, the extent of syncytia formation in each sample was evaluated by light microscopy. […] Results are representative of three independent experiments.

[4] = system: IL-1β; assay: Release of 17-kDa IL-1β from isolated tonsillar CD4 T-cells (ionophore stimulus); assay type: cell-based, human; conditions: nigericin 10 μM
Description: For stimulating the processing and secretion of IL-1, CD4 T-cells were isolated from HLACs by positive selection and treated with 0.5 μM PMA ([…], Calbiochem Cat. #524400) for 6 hours at 37° C. PMA induces large intracellular stores of the 35 kDa pro-IL-1β. Cells were then washed with PBS and treated with 10 μM nigericin (Sigma, Cat. # N7143) overnight at 37° C. The potassium ionophore nigericin mediates an elecroneutral exchange of intracellular K^+ ions for extracellular protons, providing a second inflammatory stimulus, which results in the maturation and release of the bioactive 17 kDa IL-1β(Perregaux et al., 1992, J Immunol 149:1294-1303; Perregaux and Gabel, 1994, J Biol Chem 269:15195-15203).
Isolated tonsillar CD4 T-cells were treated overnight with nigericin (10 μM) to provide a second inflammatory stimulus, resulting in maturation and release of bioactive 17-kDa IL-1β. Supernatants from the cell cultures were subjected to SDS-PAGE and immunoblotting. 17-kDa IL-1β was released after treatment with nigericin, but not with calcium ionophore A23187 or the nonspecific cation ionophore monensin. Thus, while these cells are primed, they must receive the appropriate proinflammatory signal for pro-IL-1β processing and release. […]

[5] = system: CFSE-labeled spleen CD4 T-cells; assay: Indirect killing assay with CFSE-labeled human spleen cells; assay type: cell-based; conditions: HIV-infected spleen HLAC effectors
Description: (B and C) Fresh human spleen from a single donor were processed into HLAC and assessed in indirect cell killing assay as described in FIG. 2A. Effector spleen HLAC were stimulated with PHA and IL-2 48 hours before mixing, but not during co-culturing with CFSE-labeled cells. Non-activated resting CFSE-labeled spleen cells were co-cultured with NL4-3-infected or uninfected effector cells in the presence or absence of the following drugs, AZT (5 μM), AMD3100 (250 nM), Efavirenz (100 nM), or Raltegravir (30 μM), as indicated. […] Percentages were normalized to the number of viable CFSE-positive spleen CD4 T-cells co-cultured with uninfected effectors in the presence of AZT, as depicted by (*). Error bars represent standard error of the mean for three experiments performed with three different spleen and tonsil donors.
as §1
Uninfected cells (5×10^6/ml) were labeled with 1 μM CFSE (Molecular Probes C1157), treated with 5 μM AZT for 24 h, and co-cultured with effector cells. CFSE readily diffuses into cells, where intracellular esterases cleave the acetate groups, converting it to a fluorescent, membrane-impermeable dye. […] To quantify indirect killing, mixed (CFSE-labeled+effector) cultures were washed in FACS buffer (PBS supplemented with 2 mM EDTA and 2% fetal bovine serum), stained with PE-conjugated anti-CD4, PerCP-conjugated anti-CD19, and APC-conjugated anti-CD8 (all from BD Pharmingen) and fixed in 1% paraformaldehyde. To determine the absolute numbers of the viable CFSE-labeled cells, a standard number of fluorescent beads (Flow-Count Fluorospheres, Beckman Coulter) was added to each cell-suspension sample before data acquisition. Data were collected on a FACS Calibur (BD Biosciences) and analyzed with Flowjo software (Treestar). The level of indirect killing was defined by sequential gating beginning with forward scatter versus side scatter to select live lymphocytes, subgating on the CFSE-positive population, and calculating the numbers of CD4 or CD8 T or B cells, divided by the number of fluorescent beads acquired.

[6] = system: HIV-1 reverse transcription products; assay: Taqman QPCR of HIV-1 reverse transcription products in infected CD4 T-cells; assay type: cell-based, human; conditions: 16 hours after infection with NL4-3, versus untreated cells
Description: Fresh HLACs were washed once with PBS and resuspended with PBS containing 5 mM EDTA and 2% fetal bovine serum. CD4 T-cells were isolated from HLACs by positive selection on CD4 microbeads (Miltenyi) and cultured overnight in 96-well U-bottomed plates (1×10^6 cells/well) as described above, and AZT was added to the indicated cell samples. Next day, the rest of the drugs were added to the indicated cell samples at concentrations as described above. Cells were chilled on ice for 15 min and DNAse-treated (Ambion, 60 U/ml, 1 hour, 37° C.) NL4-3 or Δvif NL4-3 virions (200 ng/well) were added. After a 1 hour incubation with virions on ice, cells were spinoculated at 1200 g for 2 hours at 4° C., incubated at 37° C. for 2 hours, washed three times with cold PBS, and resuspended in fresh RPMI with the indicated drugs. Eight or 16 hours after spinoculation, cell pellets were frozen at −80° C. Total DNA was purified from each cell pellet with a DNAse kit (Qiagen). Primer and probe sequences used to detect reverse transcription products are provided herein. QPCR reactions were performed in triplicates in TaqMan universal PCR master mix using each primer at 3.75 μM and probe at 2.5 μM. After 15 minutes at 95° C., reactions underwent 50 cycles of 15 sec at 95° C. followed by 1 min at 60° C. in an ABI Prism 7900HT (Applied Biosystems).
Next the status of HIV-1 reverse transcription in tonsillar CD4 T-cells after infection was examined. […] Taqman-based quantitative real-time PCR (QPCR) was used to quantify the synthesis of reverse transcription products in isolated CD4 T-cells from HLAC 16 hours after infection with NL4-3. Specific QPCR primers and probes were designed (Table 1) to monitor sequential steps in reverse transcription including generation of strong-stop DNA, first template exchange (Nef), and DNA strand elongation (Env) (FIG. 10A)

[7] = system: ISRE-GFP H35 cells; assay: ISRE-GFP H35 reporter cells; assay type: cell-based, rat; conditions: 1 μg transfected
Description: Hepatocyte-derived reporter ISRE-GFP H35 cells were maintained as previously described (King et al., 2007, Lab Chip 7:77-85; Patel et al., 2009, Proc Natl Acad Sci USA 106:12867-12872). For microscopic imaging, ISRE-GFP reporter H35 cells were cultured on 35 mm glass bottom culture dishes (MatTeck) and were treated with AZT (5 μM), Efavirenz (100 nM), or Raltegravir (30 μM) 12 hours before infection. Cells were then infected with 2 μg/ml of replication competent VSV-G pseudotyped NL4-3. After 48 hours incubation at 37° C., cells were fixed in 2% paraformaldehyde at 25° C. for 1 hour, washed with PBS and stained with 10 μg/ml Hoechst 33342 (Invitrogen) and 1 μg/ml 7-AAD (eBioscience) for 15 min at 25° C. Cells were washed 3 times with PBS and were analyzed with an Axio observer Z1 microscope (Zeiss) equipped with an EC Plan NEOFLUAR 10×/0.3 PHM27 objective, filter sets 38HE, 45, and 49, and an Axiocam MRM REV 3.

CC(C)c1cc(Cl)cc(C(C)C)c1NC(=O)NS(=O)(=O)c1cccc(C(C)O)c1 (centres unmarked) [CP-412,245]
post-translational processing and secretion of IL-1β [1]: inhibited the post-translational processing and secretion of IL-1β

CC(C)c1cc(Cl)cc(C(C)C)c1NC(=O)NS(=O)(=O)c1cccc(C(C)(C)O)c1 [CP-424,174]
post-translational processing and secretion of IL-1β [1]: inhibited the post-translational processing and secretion of IL-1β

CC(C)(C)NC(=O)[C@@H]1CN(Cc2cccnc2)CCN1C[C@@H](O)C[C@@H](Cc1ccccc1)C(=O)N[C@H]1c2ccccc2C[C@H]1O [Indinavir]
indirect killing (loss) of resting CFSE-labeled CD4 T-cells [2]: inhibit indirect killing | syncytia formation / cell-cell fusion [3]: do not block syncytia formation

CC(C)(C)NC(=O)[C@@H]1C[C@@H]2CCCC[C@@H]2CN1C[C@@H](O)[C@H](Cc1ccccc1)NC(=O)[C@H](CC(N)=O)NC(=O)c1ccc2ccccc2n1 [Saquinavir]
indirect killing (loss) of resting CFSE-labeled CD4 T-cells [2]: inhibit indirect killing | syncytia formation / cell-cell fusion [3]: do not block syncytia formation

Cc1ccc(-c2ccc3c(c2)C=C(C(=O)Nc2ccc(C[N+](C)(C)C4CCOCC4)cc2)CCC3)cc1.[Cl-] [TAK779]
indirect killing of CFSE-labeled CD4 T-cells ([2]; WEAU 16-8 (R5/X4)-infected effector cells): had no effect

CC(NC(=O)[C@H](Cc1ccccc1)NC(=O)OCc1ccccc1)C(=O)CF (some centres unmarked) [Z-FA-FMK]
death of abortively infected CD4 T-cells with caspase inhibitors ([2]; 20 μM caspase inhibitor, AZT 5 μM): persisted

COC(=O)C[C@H](NC(=O)[C@H](C)NC(=O)[C@@H](NC(=O)[C@H](Cc1ccc(O)cc1)NC(=O)OCc1ccccc1)C(C)C)C(=O)CF [Z-YVAD]
nigericin-induced IL-1β release after pre-treatment with caspase inhibitor [4]: blocked

Cc1ccnc2c1NC(=O)c1cccnc1N2C1CC1 [nevirapine]
indirect killing (loss) of resting CFSE-labeled CD4 T-cells [2]: blocked indirect killing of resting CD4 T-cells as efficiently as AMD3100

Cc1nnc(C(=O)NC(C)(C)c2nc(C(=O)NCc3ccc(F)cc3)c(O)c(=O)n2C)o1 [raltegravir]
indirect killing (loss) of resting CFSE-labeled CD4 T-cells [2]: did not prevent abortive infection killing | loss of CFSE-labeled spleen CD4 T-cells [5]: did not prevent CD4 T-cell killing | reverse transcription products corresponding to strong-stop DNA [6]: similar

poly(I:C)
ISRE-GFP reporter activation by transfected nucleic acid [7]: elicited a comparable ISRE-GFP response
